Data on 12 compounds can be found in patent US7595327B2, “Beta-sulfonamide hydroxamic acid inhibitors of tace/matrix metalloproteinase” (priority 2005, dated 2009).

For test [1], the target named is MMP-13 (Homo sapiens, UniProt P45452). In words: In-vitro fluorescence assay of MMP-13 activity. It counts as biochemical. Here is the method:
See Knight, C. […] […].
The method was essentially the same as for the determination of MMP-1 activity, described above, except that the final concentration of purified MMP in the assay was 0.5 nM, prepared by diluting with the assay buffer.

Test [2] has as its system TNF-α secretion in Raw 264.7 cells. As to the kind of experiment: Cell-based assay for inhibition of TNF-α secretion in Raw cells. The settings on record: Mus musculus, RAW264.7, LPS 100 ng/ml, 4 hr. On the procedure:
The basic measurement of the assay is the percentage of inhibition of TNF-α secretion and the IC50 determination by a fitting with the model-39 of LSW data analysis tool. […] Cells are split twice a week by scraping and 1 to 10 or 20 dilutions. For testing compounds, cells are cultured to confluence and are seeded the day before the experiment in 24 well culture dishes at 0.5 to 1 million/ml well. On the next morning, the medium from the overnight culture is replaced with the fresh growth medium. The compounds are added at various concentration at the 0.2% of final DMSO concentrations (10 μl of a 20% DMSO solution containing testing compounds is added to each well). The cells are pre-incubated with compounds for 1 hr. LPS (Sigma, L2262) is added to cells at a final concentration of 100 ng/ml (10 μl of a […] LPS solution freshly diluted from a 1 mg/ml LPS stock solution in PBS is added to each well) and cells are further incubated for 4 hr at 37° C. 1 ml of the supernatant was collected, cells are spun down and the supernatants are frozen at −80° C. until use. The TNF-α and other proinflammatory cytokines were detected by an ELISA assay according to the manufacturer's instructions (Biosource International, Inc., Camarillo, Calif. (For IL-1b measurement in Raw cells, one round of freeze and thaw of the cells was required).

For test [3], the system named is LPS-induced TNF-α secretion in human whole blood. In words: Human whole blood assay for LPS-induced TNF-α secretion. It counts as cell-based. Conditions: Homo sapiens, LPS 100 ng/ml, read-out: TNF Secretion HWB IC50. On the procedure: procedure is essentially as described in Newton, R. C., et al., (2001) Ann Rheum […]32, incorporated by reference herein in its entirety. The basic measurement of the assay is the percentage of inhibition of TNF-α secretion and the IC50 determination by a […] model-39 of LSW data analysis tool. 350 μl of fresh human blood drawn from healthy volunteers were pre-incubated with compounds for one hour at the various concentrations at 37° C. with turning generally, the final DMSO concentrations should be kept below 0.2%. At the end of cubation, LPS (Sigma, L2262) was added to the blood at 100 ng/ml and the samples were further incubated for 4 hours or overnight at 37° C. with constant rotation. At the end of the incubation period, 650 μl of serum-free medium was added to the blood samples and the samples were centrifuged at 1500 rpm for 15 minutes. 500 μl of supernate was collected and frozen at -80° C. The TNF-α and other proinflammatory cytokines were detected by ELISA assay according to the manufacturer's instruction (Biosource International, Inc., Camarillo, Calif.).

Test [4] concerns the target T1, TACE (catalytic domain of the recombinant TACE protein) (Homo sapiens, UniProt P78536).
T1 construct: The catalytic domain of the recombinant TACE protein was expressed and purified; made in house
In words: TACE FRET assay using TACE Cat. It counts as biochemical. Conditions: FRET, pro-TNF-α substrate peptide; read-out: TACE IC50. On the procedure:
The procedure is essentially as described in Jin, G. et al., Analytical Biochemistry (2002) 302, 269-275, incorporated by reference herein in its entirety. […] K is the IC50. Generally, n and B are floated, noting that n (hill slope) should be close to 1 and B (background offset) to 0.
Pro-TNF-α substrate peptide Abz-[…]-Dpa (AnaSpec, San Jose, Calif., WARC-1) was prepared as a 2 mM stock solution in the TACE assay buffer (50 mM Tris-HCI, pH 7.4, 25 mM NaCl, 4% Glycerol, 0.005% Brij 35). The catalytic domain of the recombinant TACE protein was expressed and purified. The TACE protein (1 ug/ml) was pretreated with the inhibitors at various concentrations for 10 min at room temperature. The reaction was initiated by the addition of the substrate peptide. The increase in fluorescence was monitored at an Excitation of 320 nm and an Emission of 420 nm over a period of 10 min. The initial rate (slope) of the reaction was determined using a fluorescence plate reader (Molecular Devices, Spectra Max Gemini XS).

Test [5] concerns the target T2, recombinant human MMP-2 (Homo sapiens, UniProt P08253).
T2 sequence (P08253 110-660): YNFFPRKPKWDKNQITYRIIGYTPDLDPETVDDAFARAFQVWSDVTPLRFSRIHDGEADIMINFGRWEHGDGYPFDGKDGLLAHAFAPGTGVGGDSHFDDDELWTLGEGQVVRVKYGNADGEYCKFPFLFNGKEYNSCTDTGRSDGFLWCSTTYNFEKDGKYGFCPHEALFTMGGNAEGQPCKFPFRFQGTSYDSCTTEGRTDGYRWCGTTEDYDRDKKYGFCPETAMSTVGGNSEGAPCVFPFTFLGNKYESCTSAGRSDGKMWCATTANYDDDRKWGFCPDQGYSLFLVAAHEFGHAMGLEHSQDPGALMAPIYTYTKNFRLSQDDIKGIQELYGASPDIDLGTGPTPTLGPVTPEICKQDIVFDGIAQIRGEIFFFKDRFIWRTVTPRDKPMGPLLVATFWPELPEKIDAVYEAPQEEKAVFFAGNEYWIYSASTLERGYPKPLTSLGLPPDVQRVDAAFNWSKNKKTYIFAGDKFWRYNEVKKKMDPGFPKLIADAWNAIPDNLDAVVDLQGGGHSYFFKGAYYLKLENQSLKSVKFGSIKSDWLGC
In words: In-vitro fluorescence assay of MMP-2 activity. Type of test: biochemical.
Method: A continuous assay was used in which the substrate is a synthetic peptide containing a fluorescent group (7-methoxycoumarin; Mca) that is quenched by energy transfer to a 2,4-dinitrophenyl group. […] The substrate used was Mca-PQGL-(3-[2,4-dinitrophenyl]-L-2,3-diaminopropionyl)-AR-OH (denoted as Wammp-5, custom synthesized by AnaSpec, Inc.). The assay buffer consisted of 50 mM Hepes (pH 7.4), 100 mM NaCl, 5 mM CaCI2, and 0.005% Brij-35. Each well of black polystyrene 96-well plates contained a 200 μL reaction mixture consisting of assay buffer, purified MMP (final concentration of 25 ng/ml, prepared by diluting with the assay buffer), and varied concentrations of inhibitor (prepared by serially diluting a given inhibitor in DMSO in 96-well polypropylene plate). […] The enzymatic reactions were initiated by adding the substrate to a final concentration of 20 μM, and mixing 10 times with a pipette. The final DMSO concentration in the assay was 6.0%.
Plots of the inhibitor concentration vs. the percent inhibition were fit to the following equation: y=(a−d)/[1+(x/c)^b]+d, a general sigmoidal curve with Hill slope, a to d. x is the inhibitor concentration under test. y is the percent inhibition. a is the limiting response as x approaches zero. As x increases without bound, y tends toward its limit d. c is the inflection point (IC50) for the curve. That is, y is halfway between the lower and upper asymptotes when x=c. b is the slope factor or Hill coefficient.

One may read the IC50 as the concentration that gives 50% inhibition.

T1 sequence (P78536 223-474 limits assumed): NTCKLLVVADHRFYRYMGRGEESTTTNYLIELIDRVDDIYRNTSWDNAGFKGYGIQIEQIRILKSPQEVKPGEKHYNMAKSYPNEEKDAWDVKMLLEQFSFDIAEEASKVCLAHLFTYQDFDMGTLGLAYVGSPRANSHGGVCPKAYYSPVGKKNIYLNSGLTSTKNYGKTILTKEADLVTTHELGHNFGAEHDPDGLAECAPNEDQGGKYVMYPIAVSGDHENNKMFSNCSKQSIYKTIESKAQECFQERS

In the case of `Cc1cc(COc2ccc(S(=O)(=O)N[C@@H]3CCN(C(=O)OC(C)(C)C)CC3C(=O)NO)cc2)c2ccccc2n1` (mixture of isomers) [Example 28, tert-Butyl (3S,4R)-3-[(hydroxyamino)carbonyl]-4-[({4-[(2-methylquinolin-4-yl)methoxy]phenyl}sulfonyl)amino]piperidine-1-carboxylate], the IC50 is 14400 nM in test [1]; 460 nM in test [2]; 800 nM in test [3]; 0.5 nM in test [4]; above 16700 nM in test [5].
`CC(=O)N1CCC(NS(=O)(=O)c2ccc(OCc3cc(C)nc4ccccc34)cc2)C(C(=O)NO)C1` (mixture of isomers) [Example 31, 1-Acetyl-4-[4-(2-methyl-quinolin-4-ylmethoxy)-benzenesulfonylamino]-piperidine-3-carboxylic acid hydroxyamide]: the IC50 was 6630 nM in test [1]; 20 nM in test [2]; 50 nM in test [3]; 0.9 nM in test [4]; above 10000 nM in test [5].
On to `Cc1cc(COc2ccc(S(=O)(=O)NC3CCN(CCO)CC3C(=O)NO)cc2)c2ccccc2n1` (mixture of isomers) [Example 32, 1-(2-Hydroxy-ethyl)-4-[4-(2-methyl-quinolin-4-ylmethoxy)-benzenesulfonylamino]-piperidine-3-carboxylic acid hydroxyamide], for which the IC50 was above 10000 nM in test [1]; 180 nM in test [2]; 1900 nM in test [3]; 3.2 nM in test [4]; above 10000 nM in test [5].
Turning to `Cc1cc(COc2ccc(S(=O)(=O)N[C@]3(C)CCCC[C@@H]3C(=O)NO)cc2)c2ccccc2n1` (racemic) [Example 60, (1S,2R)-N-hydroxy-2-methyl-2-[({4-[(2-methylquinolin-4-yl)methoxy]phenyl}sulfonyl)amino]cyclohexanecarboxamide (racemic)], the IC50 in test [1] is above 16700 nM; in test [2], 25 nM; in test [3] it was 4900 nM; in test [4], below 0.6 nM; in test [5], above 16700 nM.
In the case of `Cc1cc(COc2ccc(S(=O)(=O)N(C)[C@@H]3[C@@H]4CC[C@@H](C4)[C@@H]3C(=O)NO)cc2)c2ccccc2n1` (relative stereo) [Example 5, endo-N-Hydroxy-3-[methyl({4-[(2-methylquinolin-4-yl)methoxy]phenyl}sulfonyl)amino]bicyclo[2.2.1]heptane-2-carboxamide], the IC50 in test [1] was above 16700 nM; in test [2] it was 52 nM; in test [3], 9600 nM; in test [4], 1.1 nM; in test [5], above 16700 nM.
Regarding `Cc1cc(COc2ccc(S(=O)(=O)N[C@@H]3CCC[C@@H]3C(=O)NO)cc2)c2ccccc2n1` (relative stereo) [Example 11, cis-N-Hydroxy-2-[({4-[(2-methylquinolin-4-yl)methoxy]phenyl}sulfonyl)amino]cyclopentanecarboxamide], the IC50 in test [1] is above 16700 nM; in test [2] it was 11 nM; in test [3], 740 nM; in test [4], 0.6 nM; in test [5] it was above 16700 nM.
For `Cc1cc(COc2ccc(S(=O)(=O)N[C@@H]3CCCC[C@H]3C(=O)NO)cc2)c2ccccc2n1` (relative stereo) [Example 14, trans-N-Hydroxy-2-[({4-[(2-methylquinolin-4-yl)methoxy]phenyl}sulfonyl)amino]cyclohexanecarboxamide], the IC50 in test [1] is above 16700 nM; in test [2], 60 nM; in test [3], 4500 nM; in test [4], 1.8 nM; in test [5] it was above 16700 nM.
Turning to `Cc1cc(COc2ccc(S(=O)(=O)N(C)[C@@H]3CC=CC[C@@H]3C(=O)NO)cc2)c2ccccc2n1` (relative stereo) [Example 15, cis-N-Hydroxy-6-[methyl({4-[(2-methylquinolin-4-yl)methoxy]phenyl}sulfonyl)amino]cyclohex-3-ene-1-carboxamide], the half-inhibitory concentration (IC50) in test [1] is above 16700 nM; in test [2], above 1000 nM; in test [3] it was above 50000 nM; in test [4] it was 2.6 nM; in test [5], above 16700 nM.
Consider `Cc1cc(COc2ccc(S(=O)(=O)N(C)[C@@H]3CCC[C@@H]3C(=O)NO)cc2)c2ccccc2n1` (relative stereo) [Example 16, cis-N-Hydroxy-2-[methyl({4-[(2-methylquinolin-4-yl)methoxy]phenyl}sulfonyl)amino]cyclopentanecarboxamide], for which the IC50 in test [1] is 13700 nM; in test [2], 93 nM; in test [3] it was 4780 nM; in test [4], below 0.6 nM; in test [5], 9740 nM.
For the compound `C#CCN1C[C@H](C(=O)NO)[C@H](NS(=O)(=O)c2ccc(OCc3cc(C)nc4ccccc34)cc2)C1` (relative stereo) [Example 18, cis-N-Hydroxy-4-[({4-[(2-methylquinolin-4-yl)methoxy]phenyl}sulfonyl)amino]-1-prop-2-yn-1-ylpyrrolidine-3-carboxamide], the IC50 in test [1] was above 10000 nM; in test [2], 90 nM; in test [3], 1000 nM; in test [4], 0.7 nM; in test [5], above 10000 nM.
Take `CC(=O)N1C[C@H](C(=O)NO)[C@H](NS(=O)(=O)c2ccc(OCc3cc(C)nc4ccccc34)cc2)C1` (relative stereo) [Example 19, cis-1-acetyl-N-Hydroxy-4-[({4-[(2-methylquinolin-4-yl)methoxy]phenyl}sulfonyl)amino]pyrrolidine-3-carboxamide]: the IC50 in test [1] was at least 10000 nM; in test [2], 20 nM; in test [3], 200 nM; in test [4], below 0.6 nM; in test [5], above 10000 nM.
Taken in the same sequence, the figures for `Cc1cc(COc2ccc(S(=O)(=O)N[C@@H]3CN(C(=O)OC(C)(C)C)C[C@@H]3C(=O)NO)cc2)c2ccccc2n1` (relative stereo) [Example 21, tert-Butyl cis-3-[(hydroxyamino)carbonyl]-4-[({4-[(2-methylquinolin-4-yl)methoxy]phenyl}sulfonyl)amino]pyrrolidine-1-carboxylate] were 4890 nM, 38 nM, 1300 nM, below 0.6 nM and 8800 nM.
